Measurements reported in patent publication US20250368687A1, “SHORT SYNTHETIC PEPTIDES AND USES THEREOF IN THE TREATMENT OF ENTEROVIRUS INFECTION” (CITY UNIVERSITY OF HONG KONG, priority 2024, published 2025).

Experiments:
Type in all cases: cell-based
[1] = CCK-8 assay; conditions: human; RD cells, data not shown
Procedure: RD cells were seeded in 96-well cell plates (1×10^4/well) and placed in the 5% CO2 incubator for 1 day. Then the cells were treated with peptides for 2 days. 90 μl medium and 10 μl of CCK-8 (BioSharp, BS350B) was added to each well of the 96-well plate, which were incubated at 37° C. for 1 h. A microplate reader (BioTek, Synergy H1) was used to measure the OD value of each well at 450 nm.

[2] = test system: 2Apro-induced relocalization of Hsp27 and hnRNP A1 in RD cells; experiment: Immunofluorescence colocalization assay of 2Apro-induced relocalization of Hsp27 and hnRNP A1; conditions: 25 μM for 2 hours, transfected with 2Apro for 24 hours
Procedure: FIGS. 9A-9B Peptide S78 blocks the 2A^pro-induced relocalization of Hsp27 and hnRNP A1. RD cells on the coverslips were treated with peptides (S78, S78A, and S82A) at the concentration of 25 μM for 2 hours, and then transfected with 2A^pro for 24 hours. The cells were fixed and stained with anti-Hsp27and anti-hnRNPAI, followed by Alexa Fluor 488-conjugated anti-rabbit antibody and Alexa Fluor 594-conjugated anti-mouse antibody. The nuclei were stained with Hoechst. The images were captured by Nikon A1HD25 Confocal Microscope. The JACoP-plugin of the extended ImageJ version Fiji was used to compute the M1 colocalization coefficient, in which (FIG. 9A) is M1 colocalization coefficient for the fraction of Hsp27 in Hoechst and (FIG. 9B) is the M1 colocalization coefficient for the fraction of hnRNP A1 in Hoechst. Statistical analyses were carried out using Student's t-test. *: p<0.05, **: p<0.01, ***: p<0.001. Data are expressed as mean ±SD.
The cells on coverslips were infected with EV-A71 at the multiplicity of infection (MOI) of 40 for 6 hrs to assure the high efficiency of viral infection. Then the cells were fixed by 4% paraformaldehyde for 20 min, permeabilized by 0.5% Triton X-100 for 15 min, blocked with 5% BSA for 2 hrs, and stained by incubation with anti-Hsp27 (GTX101145) and anti-hnRNP A1 (sc-32301) antibody, then with Alexa Fluor 488 conjugated anti-rabbit antibody and Alexa Fluor 594 conjugated anti-mouse antibody respectively. After washing four times with 0.2% Triton X-100, the nuclei were stained with DAPI or Hoechst for 5 min. The images were captured by a Nikon A1HD25 High speed and Large Field of View Confocal Microscope. Colocalization analysis was conducted using the JACoP-plugin of the extended ImageJ version Fiji. The M1 colocalization coefficient was computed to illustrate the colocalization levels of Hsp27 and hnRNP A1 overlapped with Hoechst.

[3] = test system: EV-A71; experiment: EV-A71-induced cytopathic effect (CPE) on RD cells; conditions: EV-A71 MOI 1 for 12 hours
Procedure: FIGS. 10A-10K. Peptide S78 inhibited EV-A71 replication and propagation. (FIG. 10A) RD cells were pre-treated with peptides S78 or for 2 hours and infected with EV-A71 at the MOI of 10 for 6 hours. Cell lysates were collected for western blot assay. Hsp27 phosphorylation on Ser 15, 78, 82 were detected by specific antibodies. β-Actin were detected as internal control. (FIG. 10B) Densitometric analysis of FIG. 9A. (FIG. 10C) HEK 293T cells were pre-treated with peptides S78 or S78A at the concentration of 25 μM for 2 hours and then co-transfected with Hsp27-WT plasmid (800 ng), pIRES reporter plasmid (200 ng) and 2A^pro-expressing plasmid or 2AC110A-expressing plasmid (200 ng) for 24 h, then the luciferase activity was measured. (FIG. 10D-10E) RD cells were treated with peptides S78 or S78A and then infected with EV-A71. EV-A71 VP1 were detected. (FIG. 10F) RD cells were treated with peptides and then infected with EV-A71 at the MOI of 1 for 12 hours. The EV-A71-induced CPE was captured. (FIG. 10G-10H) Intracellular viral RNA was extracted and quantified by qPCR. (FIG. 10I) Densitometric analysis FIG. 9D-E. (FIG. 10J) RD cells were treated with peptides S78 or and then infected with EV-A71 at the MOI of 1 for 12 hours. Extracellular viral RNA was extracted and quantified by qPCR. (FIG. 10K) Viral titration was calculated by TCID50. […] Data are expressed as mean ±SD. […]

| Substance | CC50 at 2 days [1] [µM] | 2Apro-induced relocalization of Hsp27 and hnRNP A1 [2] | protection from EV-A71-induced CPE [3] |
| --- | --- | --- | --- |
| Ac-RKKRRQRRRAYSRALARQLSS-NH2 [S78A] | > 600 | still showed a certain cellular redistribution | mild protection |
| Ac-RKKRRQRRRAYSRALSRQLSS-NH2 [S78] | > 600 | almost completely blocked | dramatically protected |
